Data set [1] deals with T1, Mu-type opioid receptor (Homo sapiens, UniProt P35372). The data set can be described thus: Agonist activity at human mu opioid receptor stably transfected in CHO cells assessed as maximal response by cAMP assay relative to DAMGO. It counts as functional, cell-based. (In general: cAMP levels reflect the balance of adenylyl cyclase and phosphodiesterase activity.)
Data set [2] is described as follows: Plasma concentration in Sprague-Dawley rat at 30 mg/kg, po and measured after 1 hr. It counts as ADME, organism-based.
Data set [3] can be described thus: Drug concentration in Sprague-Dawley rat brain at 30 mg/kg, po and measured after 1 hr. It counts as ADME, organism-based. As to conditions: read-out: Ct.
Data set [4] can be described thus: Ratio of drug concentration in brain to plasma of Sprague-Dawley rat at 30 mg/kg, po measured after 1 hr. It counts as ADME, organism-based.
Data set [5] deals with T1, Mu-type opioid receptor. The data set can be described thus: Antagonist activity at human mu opioid receptor stably transfected in CHO cells assessed as decrease in DAMGO induced receptor activation by cAMP assay. It counts as functional, cell-based.
Data set [6] deals with T1, Mu-type opioid receptor. The data set can be described thus: Antagonist activity at human mu opioid receptor stably transfected in CHO cells assessed as maximal inhibition of DAMGO induced receptor activation by cAMP assay relative to naltrexone. As to conditions: filed as antagonist. It counts as functional, cell-based.
Data set [7] has as its target T1, Mu-type opioid receptor. The data set can be described thus: Agonist activity at human mu opioid receptor stably transfected in CHO cells by cAMP assay. It counts as functional, cell-based.
The test system of data set [8] is Rattus norvegicus. The data set can be described thus: Antianalgesic activity in Sprague-Dawley rat assessed as decrease in (1R,2R)-N-((S)-2-(dimethylamino)-3-(4-hydroxy-2-methylphenyl)propyl)-2-methyl-2-phenylcyclopropane-1-carboxamide induced analgesic effect by measuring withdrawal latency at 10 to 20 mg/kg, sc by hot plate assay. In kind it is functional, organism-based. As to conditions: dose 10-20 mg/kg.

The subject of data set [9] is Rattus norvegicus. The data set can be described thus: Analgesic activity in Sprague-Dawley rat assessed as increase in withdrawal latency at 10 mg/kg, sc by hot plate assay. In kind it is functional, organism-based. Background: Thermal pain tests record how soon the animal reacts.
Data set [10] relates to Rattus norvegicus. The data set can be described thus: Analgesic activity in Sprague-Dawley rat assessed as increase in withdrawal latency at 0.3 to 10 mg/kg, sc by hot plate assay. It counts as functional, organism-based. As to conditions: dose 0.3-10 mg/kg, time <= 90.0 min.
Data set [11] is described as follows: In vivo receptor occupancy at mu opioid receptor in Sprague-Dawley rat brain at 10 mg/kg, sc measured by LC/MS/MS analysis relative to control. It counts as functional.
The test system of data set [12] is Rattus norvegicus. The data set can be described thus: Antianalgesic activity in Sprague-Dawley rat assessed as decrease in (1R,2R)-N-((S)-2-(dimethylamino)-3-(4-hydroxy-2-methylphenyl)propyl)-2-methyl-2-phenylcyclopropane-1-carboxamide induced analgesic effect by measuring withdrawal latency at 10 mg/kg, sc by hot plate assay. It counts as functional, organism-based.

The source made the active and inactive calls. No cut-off for these calls is given here.

The term Emax denotes the size of the effect at its maximum, as opposed to the concentration needed. A word on the IC50: it is the concentration that inhibits the measured activity by half. The EC50 is the concentration giving half of the maximal effect.

T1 sequence (P35372 whole entry): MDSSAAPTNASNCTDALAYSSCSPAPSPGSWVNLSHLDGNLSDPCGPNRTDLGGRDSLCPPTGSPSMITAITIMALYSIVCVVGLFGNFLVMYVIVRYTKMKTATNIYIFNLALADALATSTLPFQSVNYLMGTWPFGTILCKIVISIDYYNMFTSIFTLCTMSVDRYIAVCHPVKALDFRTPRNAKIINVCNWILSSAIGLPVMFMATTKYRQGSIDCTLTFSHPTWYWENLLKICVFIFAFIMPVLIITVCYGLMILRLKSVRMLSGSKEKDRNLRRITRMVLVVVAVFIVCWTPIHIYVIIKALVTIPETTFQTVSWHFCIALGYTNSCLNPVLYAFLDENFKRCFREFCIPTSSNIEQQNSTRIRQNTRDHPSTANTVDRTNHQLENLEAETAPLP

For `C[C@@H](CC(=O)NC[C@H](Cc1ccc(O)cc1)N(C)C)c1ccccc1`, at Mu-type opioid receptor [1] (filed as agonist), the Emax was found to be 68%. Besides, the figures for the concentration at 1 h in [2] and in data set [3] were 16.9 ng/mL and 14.4 ng/g, respectively. Besides, the BPR in [4] was found to be 85%.

For the compound `C[C@@H](CC(=O)NC[C@H](Cc1c(F)cc(O)cc1F)N(C)C)c1ccccc1`, the Emax at Mu-type opioid receptor [1] came to 33%. Besides, the concentration at 1 h in data set [2] came to 5.4 ng/mL; in data set [3], 3.9 ng/g. Moreover, the BPR in data set [4] amounted to 72%.

Regarding `CN(C)[C@H](CNC(=O)[C@H]1C[C@]1(C)c1ccccc1)Cc1ccc(O)cc1`, the IC50 at Mu-type opioid receptor [5] amounted to 210 nM. For the same compound, the Imax on Mu-type opioid receptor [6] was determined as 100%. Besides, at Mu-type opioid receptor [7], the EC50 was over 3000 nM.

For `C[C@@H](OC(=O)NC[C@@H](Cc1ccc(O)cc1)N(C)C)c1ccccc1`, the EC50 at Mu-type opioid receptor [7] was 950 nM.

On to `CN(C)[C@H](CNC(=O)[C@@H]1C[C@]1(C)c1ccccc1)Cc1ccc(O)cc1`, for which the IC50 at Mu-type opioid receptor [5] turned out to be 110 nM. Further, the Imax on Mu-type opioid receptor [6] was found to be 100%. Besides, in the data set on Rattus norvegicus [8], the outcome was Active. For the same compound, in the data set on Rattus norvegicus [9], the result was inactive. Moreover, the EC50 on Mu-type opioid receptor [7] was over 3000 nM.

Regarding `CN(C)[C@H](CNC(=O)O[C@H](c1ccccc1)C1CC1)Cc1ccc(O)cc1`, the Emax on Mu-type opioid receptor [1] was 26%. Further, the EC50 on Mu-type opioid receptor [7] was 770 nM.

`CN(C)[C@H](CNC(=O)[C@@H]1C[C@@]1(C)c1ccccc1)Cc1ccc(O)cc1`: in the data set with Rattus norvegicus [10], the Activity result was “Dose-Dependent Effect”. Further, on Mu-type opioid receptor [1] (filed as agonist), the maximum response (Emax) is 90%. Also, the concentration at 1 h in [2] came to 3.7 ng/mL; in data set [3], 3.3 ng/g. In addition, the BPR in [4] is 89%. Besides, the EC50 at Mu-type opioid receptor [7] was 0.87 nM.

As to `C[C@H](NC(=O)NC[C@H](Cc1ccc(O)cc1)N(C)C)c1ccccc1`, at Mu-type opioid receptor [1] (filed as agonist), the Emax was found to be 48%. Besides, the concentration at 1 h in data set [2] was determined as 190 ng/mL; in data set [3] it was 33 ng/g. The BPR in [4] was 17%. The compound further showed an EC50 at Mu-type opioid receptor [7] of 21 nM.

For `Cc1cc(O)cc(C)c1C[C@@H](CNC(=O)[C@@H]1C[C@@]1(C)c1ccccc1)N(C)C`, at Mu-type opioid receptor [1], the Emax is 27%. For the same compound, in the data set on Rattus norvegicus [8], the result was Active. Also, the result in the data set with Rattus norvegicus [9] was inactive. In addition, the response on Mu-type opioid receptor [7] was half-maximal at 2 nM (EC50).

Regarding `CN(C)[C@H](CNC(=O)[C@H]1C[C@@]1(C)c1ccccc1)Cc1ccc(O)cc1`, at Mu-type opioid receptor [5], the IC50 was over 3000 nM. The compound also registered an EC50 on Mu-type opioid receptor [7] of over 3000 nM.

For the compound `Cc1cc(O)ccc1C[C@@H](CNC(=O)[C@@H]1C[C@@]1(C)c1ccccc1)N(C)C`, on Mu-type opioid receptor [1] (filed as agonist), the Emax was 100%. Further, the EC50 at Mu-type opioid receptor [7] was determined as 0.33 nM.

Regarding `CN(C)[C@H](CNC(=O)[C@@H]1C[C@]1(C)c1ccccc1)Cc1ccc(O)cc1Cl`, the Activity in data set [11] is listed as 70%. Moreover, the result in the data set with Rattus norvegicus [12] was Active. For the same compound, the IC50 at Mu-type opioid receptor [5] was determined as 29 nM. Besides, on Mu-type opioid receptor [6], the Imax is 100%. For the same compound, the EC50 at Mu-type opioid receptor [7] is over 3000 nM.

In turn, `CN(C)[C@H](CNC(=O)N[C@H](c1ccccc1)C1CC1)Cc1ccc(O)cc1` gave an EC50 at Mu-type opioid receptor [7] of 7.3 nM. This lies in the single-digit nanomolar range.

With `C[C@@H](OC(=O)NC[C@H](Cc1ccc(O)cc1)N(C)C)c1ccccc1`, the EC50 on Mu-type opioid receptor [7] turned out to be 62 nM.

As for `C[C@H](CC(=O)NC[C@H](Cc1ccc(O)cc1)N(C)C)c1ccccc1`, at Mu-type opioid receptor [1] (filed as agonist), the maximal response (Emax) came out at 68%. Besides, the figures for the concentration at 1 h in [2] and in data set [3] were 23.3 ng/mL and 29.2 ng/g, respectively. In addition, in [4], the BPR is recorded as 125%.

In the case of `C[C@H](OC(=O)NC[C@@H](Cc1ccc(O)cc1)N(C)C)c1ccccc1`, the EC50 on Mu-type opioid receptor [7] is over 3000 nM.

As for `C[C@H](OC(=O)NC[C@H](Cc1ccc(O)cc1)N(C)C)c1ccccc1`, the concentration at 1 h was 149 ng/mL in [2] and 481 ng/g in data set [3]. The BPR in data set [4] was determined as 323%. The same compound displayed an EC50 on Mu-type opioid receptor [7] of 180 nM.

`CN(C)[C@@H](CNC(=O)N[C@H](c1ccccc1)C1CC1)Cc1ccc(O)cc1` registered an EC50 on Mu-type opioid receptor [7] of 346 nM.

Take `CN(C)[C@@H](CNC(=O)N[C@@H](c1ccccc1)C1CC1)Cc1ccc(O)cc1`: the EC50 at Mu-type opioid receptor [7] amounted to 243 nM.

On Mu-type opioid receptor [7], `CN(C)[C@H](CNC(=O)N[C@@H](c1ccccc1)C1CC1)Cc1ccc(O)cc1` gave a 50% effective concentration (EC50) of 104 nM.
